Test: Whole body autoradiography after 30-minute 3 mg/kg IV infusion of [^14C]-tigecycline
Format: in vivo, Sprague-Dawley rats
Procedure: Male Sprague-Dawley and Long-Evans rats were obtained from Charles River Breeding Laboratories, Raleigh, N.C., and were quarantined for at least one week prior to the start of the study. […] The dosing solution was diluted and radioassayed directly in Ultima Gold scintillation counting cocktail (Packard Inc.). […] All pumps were calibrated prior to the administration of the compound. Rats were anesthetized with isoflurane prior to cardiac puncture exsanguination at the prescribed times after dosing. […] Control whole blood was collected from male Sprague-Dawley rats into tubes containing sodium heparin. Pooled blood was used to prepare the calibration standards and quality control samples. The standards were used to construct the standard curve for the quantification of radiolabeled drug distribution in tissues of whole blood cryosections. The quality controls, which were embedded in the same CMC block with each rat, were used for assessing intra- and inter-section variation in the thickness of rat whole-body cryosections. […] Immediately following euthanasia, each rat was totally immersed in a bath of hexane and dry ice (−75° C.) until frozen. Each carcass was dried and stored at −30° C. until embedded. […] Each frozen rat was sagitally sectioned at −20° C. A sufficient number of sections were collected to ensure sampling of all tissues of interest. The sections were dehydrated overnight in a cryochamber and then rapidly transferred to a dessicator containing CaSO4 to prevent condensation of atmospheric moisture while equilibrating to room temperature. The sections were mounted on cardboard and labeled with [^14C]-labeled black ink with a unique identification number. […] A small piece of Scotch tape was placed over the dried radioactive ink to prevent the contamination of the storage phosphor screens. Phosphor imaging plates, BAS-SR 2025 (Fuji Photo Film Co., Japan) were exposed to bright visible light for 20 minutes using an IP eraser (Raytest, USA Inc., New Castle, Del.) to remove background radiation. Sections and calibration blood standards were concurrently placed in direct contact with Ips and exposed for 7 days. All sections were stored at room temperature in a lead shielding box to minimize background levels. Phosphor images were generated using a Fujifilm BAS-5000 Bio-Imaging Analyzer and quantitated by MCID M2 Software, version 3.2 (Imaging Research Inc., St. Catherines, Ontario, Canada). The STDs and QCs were analyzed using the circular sampling tool in the MCID software program. Areas of interest in whole-body sections were manually outlined with the regional sampling tool to generate count data. Radioactive concentrations in select tissues were determined by digital analysis of the resulting autoradiograms on the basis of a calibration curve. […] The linear regression curve was then used to determine the concentration of unknown radioactivity of study samples. […] Blood samples were combusted using a Model 307 sample oxidizer (Packard Instrument Company). […] Research Triangle Park, N.C.), which applies a model-independent approach and standard procedures as described in Gibaldi and Perrier. Gibaldi, Pharmacokinetics, 1982. […] For IV infusion dosing, C30 min was the concentration at 30 minutes, the first sampling time point. The maximum plasma concentration (Cmax) and the corresponding time of peak concentration following IV administration were obtained directly by numerical inspection from the individual concentration-time data. The terminal half-life was calculated by the ratio of ln2/λz where λz is derived from the terminal slope of the concentration time curve. The area under the plasma concentration versus time curve from zero to infinity was calculated using the trapezoidal rule, where Clast is the last measurable plasma concentration. […]

CN(C)c1cc(NC(=O)CNC(C)(C)C)c(O)c2c1C[C@H]1C[C@H]3[C@H](N(C)C)C(O)=C(C(N)=O)C(=O)[C@@]3(O)C(O)=C1C2=O [[^14C]-Tigecycline]
Mean concentration of total radioactivity (Liver, 24 Hrs): 160 ng equiv./g | Tissue:Plasma Ratio (Liver, 24 Hrs): 10.8 | Mean concentration of total radioactivity (Liver, 72 Hrs): 22.7 ng equiv./g | Tissue:Plasma Ratio (Liver, 72 Hrs): 5.26 | Mean concentration of total radioactivity (Liver, 168 Hrs): 13.3 ng equiv./g | Mean concentration of total radioactivity (Liver, 336 Hrs): <5.10 ng equiv./g | AUC (Liver, first AUC column): 52676 Ng eq hr/g | Mean concentration of total radioactivity (Lung, 0.5 Hrs): 2981 ng equiv./g | Tissue:Plasma Ratio (Lung, 0.5 Hrs): 3.33 | Mean concentration of total radioactivity (Lung, 8.5 Hrs): 496 ng equiv./g | Tissue:Plasma Ratio (Lung, 8.5 Hrs): 0.984 | Mean concentration of total radioactivity (Lung, 24 Hrs): 73.1 ng equiv./g | Tissue:Plasma Ratio (Lung, 24 Hrs): 4.96 | Mean concentration of total radioactivity (Lung, 72 Hrs): 13.5 ng equiv./g | Tissue:Plasma Ratio (Lung, 72 Hrs): 3.13 | Mean concentration of total radioactivity (Lung, 168 Hrs): <5.10 ng equiv./g | Mean concentration of total radioactivity (Lung, 336 Hrs): <5.10 ng equiv./g | AUC (Lung, first AUC column): 21263 Ng eq hr/g | AUC (Lymph Node): 37010 Ng eq hr/g | Mean concentration of total radioactivity (Lymph Node, 0.5 Hrs): 3473 ng equiv./g | Tissue:Plasma Ratio (Lymph Node, 0.5 Hrs): 3.88 | Mean concentration of total radioactivity (Lymph Node, 8.5 Hrs): 1276 ng equiv./g | Tissue:Plasma Ratio (Lymph Node, 8.5 Hrs): 2.53 | Mean concentration of total radioactivity (Lymph Node, 24 Hrs): 180 ng equiv./g | Tissue:Plasma Ratio (Lymph Node, 24 Hrs): 12.2 | Mean concentration of total radioactivity (Lymph Node, 72 Hrs): 29.1 ng equiv./g | Tissue:Plasma Ratio (Lymph Node, 72 Hrs): 6.75 | Mean concentration of total radioactivity (Lymph Node, 168 Hrs): <5.10 ng equiv./g | Mean concentration of total radioactivity (Lymph Node, 336 Hrs): <5.10 ng equiv./g | AUC (Lymph Node, first AUC column): 36478 Ng eq hr/g | AUC (Muscle): 34910 Ng eq hr/g | Mean concentration of total radioactivity (Muscle, 0.5 Hrs): 2260 ng equiv./g | Tissue:Plasma Ratio (Muscle, 0.5 Hrs): 2.52 | Mean concentration of total radioactivity (Muscle, 8.5 Hrs): 1863 ng equiv./g | Tissue:Plasma Ratio (Muscle, 8.5 Hrs): 3.70 | Mean concentration of total radioactivity (Muscle, 24 Hrs): 85.8 ng equiv./g | Tissue:Plasma Ratio (Muscle, 24 Hrs): 5.801 | Mean concentration of total radioactivity (Muscle, 72 Hrs): 6.24 ng equiv./g | Tissue:Plasma Ratio (Muscle, 72 Hrs): 1.45 | Mean concentration of total radioactivity (Muscle, 168 Hrs): <5.10 ng equiv./g | Mean concentration of total radioactivity (Muscle, 336 Hrs): <5.10 ng equiv./g | AUC (Muscle, first AUC column): 34833 Ng eq hr/g | AUC (Pancreas): 33014 Ng eq hr/g | Mean concentration of total radioactivity (Pancreas, 0.5 Hrs): 4437 ng equiv./g | Tissue:Plasma Ratio (Pancreas, 0.5 Hrs): 4.96 | Mean concentration of total radioactivity (Pancreas, 8.5 Hrs): 971 ng equiv./g | Tissue:Plasma Ratio (Pancreas, 8.5 Hrs): 1.93 | Mean concentration of total radioactivity (Pancreas, 24 Hrs): 70.0 ng equiv./g | Tissue:Plasma Ratio (Pancreas, 24 Hrs): 4.75 | Mean concentration of total radioactivity (Pancreas, 72 Hrs): 7.41 ng equiv./g | Tissue:Plasma Ratio (Pancreas, 72 Hrs): 1.72 | Mean concentration of total radioactivity (Pancreas, 168 Hrs): <5.10 ng equiv./g | Mean concentration of total radioactivity (Pancreas, 336 Hrs): <5.10 ng equiv./g | AUC (Pancreas, first AUC column): 32908 Ng eq hr/g | AUC (Pituitary): 45164 Ng eq hr/g | Mean concentration of total radioactivity (Pituitary, 0.5 Hrs): 3693 ng equiv./g | Tissue:Plasma Ratio (Pituitary, 0.5 Hrs): 4.13 | Mean concentration of total radioactivity (Pituitary, 8.5 Hrs): 2014 ng equiv./g | Tissue:Plasma Ratio (Pituitary, 8.5 Hrs): 4.00 | Tissue:Plasma Ratio (Pituitary, 24 Hrs): 9.79 | Tissue:Plasma Ratio (Pituitary, 72 Hrs): 4.36 | AUC (Pituitary, first AUC column): 44882 Ng eq hr/g | AUC (Plasma): 10652 Ng eq hr/g | Tissue:Plasma Ratio (Plasma, 0.5 Hrs): 1.00 | Tissue:Plasma Ratio (Plasma, 8.5 Hrs): 1.00 | Tissue:Plasma Ratio (Plasma, 24 Hrs): 1.00 | Tissue:Plasma Ratio (Plasma, 72 Hrs): 1.00 | AUC (Plasma, first AUC column): 10643 Ng eq hr/g | AUC (Salivary Gland): 110979 Ng eq hr/g | Tissue:Plasma Ratio (Salivary Gland, 0.5 Hrs): 6.45 | Tissue:Plasma Ratio (Salivary Gland, 8.5 Hrs): 12.53 | Tissue:Plasma Ratio (Salivary Gland, 24 Hrs): 20.3 | Tissue:Plasma Ratio (Salivary Gland, 72 Hrs): 7.32 | AUC (Salivary Gland, first AUC column): 110558 Ng eq hr/g | AUC (Skin): 36471 Ng eq hr/g | Tissue:Plasma Ratio (Skin, 0.5 Hrs): 2.15 | Tissue:Plasma Ratio (Skin, 8.5 Hrs): 1.14 | Tissue:Plasma Ratio (Skin, 24 Hrs): 16.9 | Tissue:Plasma Ratio (Skin, 72 Hrs): 19.3 | AUC (Skin, first AUC column): 31819 Ng eq hr/g | AUC (Spleen): 70522 Ng eq hr/g | Cmax (Spleen): 6627 Ng equiv/g | Tissue:Plasma Ratio (Spleen, 0.5 Hrs): 7.40 | Tissue:Plasma Ratio (Spleen, 8.5 Hrs): 3.36 | Tissue:Plasma Ratio (Spleen, 24 Hrs): 32.3 | Tissue:Plasma Ratio (Spleen, 72 Hrs): 16.7 | AUC (Spleen, first AUC column): 69638 Ng eq hr/g | Tissue:Plasma Ratio (Testes, 0.5 Hrs): 0.388 | Tissue:Plasma Ratio (Testes, 8.5 Hrs): 0.716 | Tissue:Plasma Ratio (Testes, 24 Hrs): 8.08 | Tissue:Plasma Ratio (Testes, 72 Hrs): 3.80 | AUC (Testes, first AUC column): 9975 Ng eq hr/g | AUC (Testes, second AUC column): 10323 Ng eq hr/g | AUC (Testes, second AUC column, listed as [^14C]-tigecycline): 10303 Ng eq hr/g | AUC (Thymus): 35430 Ng eq hr/g | Tissue:Plasma Ratio (Thymus, 0.5 Hrs): 2.82 | Tissue:Plasma Ratio (Thymus, 8.5 Hrs): 3.16 | Tissue:Plasma Ratio (Thymus, 24 Hrs): 10.7 | Tissue:Plasma Ratio (Thymus, 72 Hrs): 3.55 | AUC (Thymus, first AUC column): 35204 Ng eq hr/g | AUC (Thyroid): 330047 Ng eq hr/g | Tissue:Plasma Ratio (Thyroid, 0.5 Hrs): 3.34 | Tissue:Plasma Ratio (Thyroid, 8.5 Hrs): 3.50 | Tissue:Plasma Ratio (Thyroid, 24 Hrs): 24.0 | Tissue:Plasma Ratio (Thyroid, 72 Hrs): 56.0 | Tissue:Plasma Ratio (Thyroid, 72 Hrs, listed as [^14C]-tigecycline): 56 | AUC (Thyroid, first AUC column): 113022 Ng eq hr/g | AUC (lung): 21523 Ng eq hr/g | elimination half-lives across tissues (male, Sprague-Dawley, rat, in vivo): 5 to 217 h
